The results in this text go back to patent US20140329858A1, “Cyclic Urea Derivatives As Androgen Receptor Antagonists” (priority 2011, published 2014).

In the first experiment the test system is Vcap cells. In words: Dihydrotestosterone (DHT) mediated XTT cell proliferation assay for screening AR antagonists using Vcap cells. It is filed as cell-based. As to conditions: Homo sapiens, 240 h, in the presence of 0.2 nM DHT, XTT readout on Day 10, IC50 curves from 8 concentrations. The method, then: Dihydrotestosterone (DHT) Mediated XTT Cell Proliferation Assay for Screening AR Antagonists Using Vcap cells
The Vcap cells (4×10^6 cells) were seeded in a T-75 flask containing DMEM with 15% FBS. After 72 hours, the media was removed; the cells were washed once and replaced with phenol red free DMEM containing 8% charcoal stripped serum. Then, the cells were starved in phenol red free DMEM with 8% charcoal stripped serum for 5 days. Following the starvation, the cells were harvested and seeded in 96 well plates (10×10^3 cells per well) in phenol red free DMEM with 8% charcoal stripped serum (Day 0). The cells were allowed to settle and on Day 4 they were treated with different concentrations of the compound (30 μM, 10 μM, 1 μM, 500 nM, 100 nM, 10 nM, 1 nM, 0.1 nM) in the presence of 0.2 nM DHT. DHT alone and a DMSO controls were also included. All treatments were done in triplicate. The drugs were replenished on Day 7 and the cells were allowed to grow for another 72 hours. On Day 10, the experiment was terminated by adding the XTT reagent (2,3-bis[2-methoxy-4-notro-5-sulfophenyl]-2H-tetrazolium-5-caboxyanilide inner salt) dissolved in Phenol red free DMEM without serum. The cells with the XTT reagents were incubated inside the CO2 incubator for 3-4 hours for color development; after which the readings were taken at […] using a spectramax Gemini plate reader.
Data fitting: The IC50 curves for the 8 compound concentrations were calculated with GraphPad Prism software using the sigmoidal dose-response function. (Graphpad Software, San Diego, Calif., USA).
(Tetrazolium assays rely on reduction of a dye to a coloured formazan, in cell work by metabolically active cells.)
Take `N#Cc1ccc(N2C(=O)N(c3ccoc3)[C@@H]3CCCC[C@H]32)cc1C(F)(F)F` (racemic) [Example 3, Trans-4-(3-(furan-3-yl)-2-oxoocta-hydro-1H-benzo[d]imidazol-1-yl)-2-trifluoromethyl)benzonitrile (±)]: the IC50 came to 1520 nM.

As for `N#Cc1ccc(N2C(=O)N(c3ccncc3)[C@@H]3CCCC[C@H]32)cc1C(F)(F)F` (racemic) [Example 4, Trans-4-(2-oxo-3-(pyridin-4-yl)octahydro-1H-benzo[d]imidazol-1-yl)-2-(trifluoromethyl)benzonitrile (±)], the IC50 turned out to be 1040 nM.

Take `CC(CO)ONC(=O)c1ccc(N2C(=O)N(c3ccc(C#N)c(C(F)(F)F)c3)[C@@H]3CCCC[C@H]32)cc1F` (mixture of isomers) [Example 24, Trans-4-(3-(4-cyano-3-(trifluoromethyl)phenyl)-2-oxooctahydro-1H-benzo[c]im-idazol-1-yl)-2-fluoro-N-((1-hydroxypropan-2-yl)oxy)benzamide (±)]: the IC50 is 1520 nM.

Take `N#Cc1ccc(N2C(=O)N(c3cccnc3F)[C@@H]3CCCC[C@H]32)cc1C(F)(F)F` (racemic) [Example 59, Trans-4-(3-(2-fluoropyridin-3-yl)-2-oxooctahydro-1H-benzo[d]imidazol-1-yl)-2-(trifluoromethyl)benzonitrile (±)]: the IC50 was 1080 nM.

As for `N#Cc1ccc(N2C(=O)N(c3ccc(C(=O)NC(CO)CO)c(F)c3)[C@H]3CCCC[C@@H]32)cc1C(F)(F)F` [Example 37, 4-((3aS,7aS)-3-(4-cyano-3-(trifluoromethyl)phenyl)-2-oxooctahydro-1H-benzo[d]imidazol-1-yl)-N-(1,3-dihydroxypropan-2-yl)-2-fluorobenzamide], the IC50 was 6080 nM.

For the compound `N#Cc1ccc(N2C(=O)N(Cc3ccc(-n4ccnc4)nc3)[C@@H]3CCCC[C@H]32)cc1C(F)(F)F` (racemic) [Example 49, Trans-4-(34(6-(1H-imidazol-1-yl)pyridin-3-yl)methyl)-2-oxooctahydro-1H-benzo[d]imidazol-1-yl)-2-(trifluoromethyl)benzonitrile (±)], the IC50 came to 300 nM.

For the compound `N#Cc1ccc(N2C(=O)N(c3ccc(C(=O)NCCO)c(F)c3)[C@@H]3CCCC[C@H]32)cc1C(F)(F)F` (racemic) [Example 32, Trans 4-(3-(4-cyano-3-(trifluoromethyl)phenyl)-2-oxooctahydro-1H-benzo[d]im-idazol-1-yl)-2-fluoro-N-(2-hydroxyethyl)benzamide (±)], the concentration for half-maximal inhibition (IC50) was determined as 377 nM.

Regarding `Cc1cc(N2C(=O)N(c3ccc(C#N)c(C(F)(F)F)c3)[C@H]3CCCC[C@@H]32)ccc1C(=O)O` [Example 69, 4-((3aS,7aS)-3-(4-cyano-3-(trifluoromethyl)phenyl)-2-oxooctahydro-1H-benzo[d]imidazol-1-yl)-2-methylbenzoic acid], the IC50 is > 10000 nM.

Turning to `CCN(CC)CCONC(=O)c1ccc(N2C(=O)N(c3ccc(C#N)c(C(F)(F)F)c3)[C@@H]3CCCC[C@H]32)cc1F` (racemic) [Example 26, Trans-4-(3-(4-cyano-3-(trifluoromethyl)phenyl)-2-oxooctahydro-1H-benzo[d]im-idazol-1-yl)-N-(2-(diethylamino)ethoxy)-2-fluorobenzamide (±)], the half-maximal inhibitory concentration (IC50) is 75.5 nM.

`CNC(=O)c1ccc(N2C(=O)N(c3ccc(C#N)c(C(F)(F)F)c3)[C@@H]3CC(OC)CC[C@H]32)cc1F` (mixture of isomers) [Example 85, Trans-4-(3-(4-cyano-3-(trifluoromethyl)phenyl)-5-methoxy-2-oxooctahydro-1H-benzo[d]imidazol-1-yl)-2-fluoro-N-methylbenzamide (±)]: the IC50 was determined as 2620 nM.

`CN(C)CCCONC(=O)c1ccc(N2C(=O)N(c3ccc(C#N)c(C(F)(F)F)c3)[C@@H]3CCCC[C@H]32)cc1F` (racemic) [Example 25, Trans 4-(3-(4-cyano-3-(trifluoromethyl)phenyl)-2-oxooctahydro-1H-benzo[d]im-idazol-1-yl)-N-(3-(dimethylamino)propoxy)-2-fluorobenzamide (±)]: the IC50 stood at 42.4 nM.

Consider `N#Cc1ccc(N2C(=O)N(c3ccc(N)c(F)c3)[C@@H]3CCCC[C@H]32)cc1C(F)(F)F` (racemic) [Example 15, Trans-(4-(-3-(4-amino-3-fluorophenyl)-2-oxooctahydro-1H-benzo[d]imidazol-1-yl)-2-(trifluoromethyl)benzonitrile (±)], for which the IC50 was 823 nM.

For the compound `CN1C(=O)N(c2ccc(C#N)c(C(F)(F)F)c2)[C@@H]2CCC(c3ccccc3)=C[C@H]21` (racemic) [Example 91, Trans-4-3-methyl-2-oxo-5-phenyl-2,3,3a,6,7,7a-hexahydro-1H-benzo[d]imidazol-1-yl)-2-(trifluoromethyl)benzonitrile (±)], the IC50 is 323 nM.

As for `CNC(=O)c1ccc(N2C(=O)N(c3ccc(C#N)c(C(F)(F)F)c3)[C@@H]3CCC=C[C@H]32)cc1F` (racemic) [Example 84, trans-4-(3-(4-cyano-3-(trifluoromethyl)phenyl)-2-oxo-2,3,3a,4,5,7a-hexahydro-1H-benzo[d]imidazol-1-yl)-2-fluoro-N-methylbenzamide (±)], the IC50 stood at 161 nM.

In the case of `N#Cc1ccc(N2C(=O)N(c3ccc(C(=O)NOCC4CC4)c(F)c3)[C@@H]3CCCC[C@H]32)cc1C(F)(F)F` (racemic) [Example 19, Trans-4-(3-(4-cyano-3-(trifluoromethyl)phenyl)-2-oxooctahydro-1H-benzo[d]im-idazol-1-yl)-N-(cyclopropylmethoxy)-2-fluorobenzamide (±)], the IC50 came to 233 nM.

As for `COCCONC(=O)c1ccc(N2C(=O)N(c3ccc(C#N)c(C(F)(F)F)c3)[C@@H]3CCCC[C@H]32)cc1F` (racemic) [Example 20, Trans-4-(3-(4-cyano-3-(trifluoromethyl)phenyl)-2-oxooctahydro-1H-benzo[d]im-idazol-1-yl)-2-fluoro-N-(2-methoxyethoxy)benzamide (±)], the IC50 turned out to be 322 nM.

On to `N#Cc1ccc(N2C(=O)N(c3ccc(C(N)=O)c(F)c3)[C@@H]3CCCC[C@H]32)cc1C(F)(F)F` (racemic) [Example 30, Trans-4-(3-(4-cyano-3-(trifluoromethyl)phenyl)-2-oxooctahydro-1H-benzo[d]im-idazol-1-yl)-2-fluorobenzamide (±)], for which the IC50 stood at 76.3 nM.

For the compound `N#Cc1ccc(N2C(=O)N(c3ccnc(C(F)(F)F)c3)[C@@H]3CCCC[C@H]32)cc1C(F)(F)F` (racemic) [Example 11, Trans-4-(2-oxo-3-(2-(trifluoromethyl)pyridin-4-yl)octahydro-1H-benzo[d]imidazol-1-yl)-2-(trifluoromethyl)benzonitrile (±)], the half-inhibitory concentration (IC50) came out at 1240 nM.

With `Cc1c(N2C(=O)N(c3ccc(C#N)c(C(F)(F)F)c3)[C@H]3CCCC[C@@H]32)ccc(C#N)c1Cl` (racemic) [Example 42, Trans-2-chloro-4-(3-(4-cyano-3-(trifluoromethyl)phenyl)-2-oxooctahydro-1H-benzo[d]imidazol-1-yl)-3-methylbenzonitrile (±)], the IC50 was found to be 168 nM.

For `CNC(=O)c1ccc(N2C(=O)N(c3ccc(C#N)c(C(F)(F)F)c3)[C@@H]3CCC(=O)C[C@H]32)cc1F` (racemic) [Example 81, Trans-4-(3-(4-cyano-3-(trifluoromethyl)phenyl)-2,6-dioxooctahydro-1H-benzo[d]imidazol-1-yl)-2-fluoro-N-methylbenzamide (±)], the half-maximal inhibitory concentration (IC50) stood at 702 nM.

The experiment is the same for the next values; noted with them: in the presence of 0.2 nM DHT, XTT readout on Day 10, IC50 curves from 8 concentrations.
`N#Cc1ccc(N2C(=O)N(c3ccccc3)[C@@H]3CCCC[C@H]32)cc1C(F)(F)F` (relative stereo) [Example 5a, Trans-4-(2-oxo-3-phenyloctahydro-1H-benzo[d]imidazol-1-yl)-2-(trifluoromethyl)benzonitrile (+)]: the IC50 was 1760 nM.

With `CNC(=O)c1ccc(N2C(=O)N(c3ccc(C#N)c(C(F)(F)F)c3)[C@@H]3CCCC[C@H]32)cc1F` (relative stereo) [Example 1a, Trans-4-{3-[4-cyano-3-(trifluoromethyl)phenyl]-2-oxo-octahydro-1H-1,3-benzodiazol-1-yl}-2-fluoro-N-Methylbenzamide (+)], the IC50 is > 10000 nM.

For the compound `N#Cc1ccc(N2C(=O)N(c3ccc(C#N)c(C(F)(F)F)c3)[C@@H]3CCCC[C@H]32)cc1C(F)(F)F` (relative stereo) [Example 2a, Trans-4,4′-(2-oxohexahydro-1H-benzo[d]imidazole-1,3(2H)-diyl)bis(2-(trifluoromethyl)benzonitrile) (−)], the IC50 stood at 231 nM.

Regarding `N#Cc1ccc(N2C(=O)N(c3ccccc3)[C@@H]3CCCC[C@H]32)cc1C(F)(F)F` (relative stereo) [Example 5b, Trans-4-(2-oxo-3-phenyloctahydro-1H-benzo[d]imidazol-1-yl)-2-(trifluoromethyl)benzonitrile (−)], the IC50 is 1050 nM.

As for `CNC(=O)c1ccc(N2C(=O)N(c3ccc(C#N)c(C(F)(F)F)c3)C3CCC(O)CC32)cc1F` (single isomer, unassigned) [Example 82a, Trans-4-(3-(4-cyano-3-(trifluoromethyl)phenyl)-6-hydroxy-2-oxooctahydro-1H-benzo[d]imidazol-1-yl)-2-fluoro-N-methylbenzamide (+)], the IC50 was > 10000 nM.

Broadly, the IC50 is the midpoint of a concentration-inhibition curve.
